“Also recorded” adds a separate entry of the source.
How the values were obtained:
[1] = Hemolysis assay (stability of erythrocytes); type: cell-based, human; settings: male, human, heparinized whole blood diluted with saline (erythrocytes)
Experimental: (§1) Heparinized whole blood was used from a healthy volunteer. The whole blood (10 mL) was diluted with saline solution (90 mL). For each UV-Vis measurement, 2.5 mL of diluted blood was used. For each blood sample, 1 mL of a saline solution containing hydrochlorides 1–8 at concentrations of 5, 50, and 500 mg/L was added. As a control were used blood samples with the addition of 1% solution of DMSO in saline and 1% solution of SDS in saline. In all cases, the measurements were repeated twice for each concentration. […] The cells were centrifuged, and the absorbance of the supernatant, which contained plasma and lysed erythrocytes, was measured at 540 nm. The percentage of lysis was calculated from a standard curve of lysed erythrocytes treated with SDS [52].

[2] = test system: erythrocytes; experiment: Hemolysis assay (stability of erythrocytes); type: cell-based, human
Experimental: as §1

[3] = test system: human blood plasma; experiment: Prothrombin time (PT) clotting assay; type: biochemical
Experimental: (§2) Human blood plasma was isolated from fresh buffy coats (collected onto the citrate-dextrose solution—ACD) purchased from the Regional Centre of Blood Donation and Blood Treatment in Lodz, Poland. In the isolation procedure, the buffy coats (60 mL units) were divided into volumes of 10 mL and centrifuged (4000 rpm/15 min) in 15 mL tubes. Next, 1 mL solutions of each amide 1–8 were prepared in distilled water at concentrations of 10, 25, and 50 mg/L. Then, 450 μL of plasma and 50 μL of each amide at the tested concentrations were placed into 1.5 mL vials. The vials were vortexed (Vortex Biosan V-1 plus), incubated at 37 °C on a thermoblock (Dry Block Thermostat Biosan TDB-120), and analyzed using a Kselmed K-3002 OPTIC coagulometer (Grudziądz, Poland), based on the manufacturer’s protocols (described below). The control sample was native blood plasma, untreated with any of the examined substances.
(§3) Fifty microliters of control plasma and plasma samples treated with the amides were transferred to measuring cuvettes and placed in the thermoblock module (37 °C) of a coagulometer (KSELMED, K-3002 Optic). Then, 100 μL of Dia-PT reagent (DIAGON Kft. Hungary; cat. no. 81100) was added. Measurements were started immediately.

[4] = test system: human blood plasma; experiment: Thrombin time (TT) clotting assay; type: biochemical
Experimental: as §2
Both 100 μL of control plasma and plasma samples treated with the amides were transferred to measuring cuvettes, which were placed in the thermoblock module (37 °C) of the coagulometer (KSELMED K-3002 Optic). Then, 100 μL of thrombin solution (4.5 U/mL, in 0.9% NaCl; Biomed, Lublin, Poland) was added to the cuvette. Measurements were started immediately.

[5] = test system: human blood plasma; experiment: Clot formation and fibrinolysis (CFF) assay; type: biochemical; settings: for Amax (maximum of fibrin clot absorbance at 360 nm) / VmaxC (of Fibrin Polymerization) / VmaxF (of Fibrin Clot Lysis): control plasma assumed as 100%, mean ± SD, n = 5–7; for effect on fibrin polymerization (VmaxC) in words: tested at 10, 25, 50 mg/L
Text: The CFF assay enables analysis of both the blood plasma coagulation process and fibrinolysis efficiency. The thrombin enzyme in the reagent mixture initiates blood plasma fibrinogen polymerization, leading to an increase in absorbance in the sample until the maximal absorbance (Amax) is attained. The fibrinolytic activity of blood plasma is induced by the tissue-type plasminogen activator (t-PA). The activation of fibrinolysis in the tested samples leads to fibrin clot degradation and decreases the absorbance to the baseline.
Figure 11 An exemplary curve of blood plasma coagulation and clot lysis recorded during the clot formation and fibrinolysis (CFF) assay. The first step in the CFF test involves activation of the blood plasma coagulation cascade and fibrin clot formation (1). It is characterized by the maximal velocity of the fibrin polymerization parameter (VmaxC). The maximal absorbance (Amax) peak corresponds to the fibrin stabilization phase and is an indicator of fibrin clot thickness (2). The third step of the CFF assay covers the activation of fibrinolytic mechanisms and fibrin clot degradation (3) and is described by the maximal velocity of clot lysis (VmaxF).
Thrombin was purchased from BioMed (Lublin, Poland). A tissue-type plasminogen activator (Actilyse®) was purchased from Boehringer Ingelheim, Ingelheim am Rhein, Germany. Kinetic measurements were executed using a SpectrostarNano microplate spectrophotometer (BMG LabTech, Ortenberg, Germany).
Measurements were performed using a kinetic model, as described in our previous work. Briefly, blood plasma was preincubated with the examined substances (at final concentrations of 10, 25, and 50 mg/L) for 15 min at 37 °C. Then, 100 μL of blood plasma was added to microtiter plate wells, which was followed by 200 μL of the reagent mixture (0.75 U/mL thrombin, 225 ng/mL t-PA and 7.5 mM CaCl2) suspended in tris-buffered saline (0.05 M TBS, 0.9% NaCl; pH 7.4). Measurements of absorbance changes were started immediately and continued for 60 min at 37 °C, λ = 360 nm. The following parameters were used to determine the effects of the examined substances on the coagulation and fibrinolytic properties of the blood plasma: the maximal velocity of fibrinogen polymerization (VmaxC), which is an indicator of the plasma coagulation efficiency; the maximal absorbance (Amax), which is an indicator of the fibrin clot stabilization and its thickness; the maximal velocity of clot lysis (VmaxF), which is an indicator of blood plasma fibrinolytic activity.

[6] = test system: human blood plasma; experiment: Activated partial thromboplastin time (aPTT) clotting assay; type: biochemical
Experimental: as §2
as §3, with “of the” for “of a”, “Then, 50” for “Then, 100”, “of Dia-APTT” for “of Dia-PT”, “no. 72048) was added. The mixture was incubated for 180 s at 37 °C. Finally, 50 μL of reagent Dia-CaCl2 (DIAGON Kft. Hungary; cat. no. 41192)” for “no. 81100)”

SMILES	hemolysis at 45 min, 5 mg/L ([1]; c 5 mg/L, 45 min) [%]	hemolysis at 45 min, 50 mg/L ([1]; c 50 mg/L, 45 min) [%]	hemolysis at 120 min, 50 mg/L ([1]; c 50 mg/L, 120 min) [%]	hemolysis at 240 min, 50 mg/L ([1]; c 50 mg/L, 240 min) [%]	PT Time [% of Control] ([3]; c 10 mg/L)	PT Time [% of Control] ([3]; c 25 mg/L)	PT Time [% of Control] ([3]; c 50 mg/L)	TT Time [% of Control] ([4]; c 10 mg/L)	TT Time [% of Control] ([4]; c 25 mg/L)	TT Time [% of Control] ([4]; c 50 mg/L)	Amax (maximum of fibrin clot absorbance at 360 nm) ([5]; 10 mg/L) [%]	VmaxC (of Fibrin Polymerization) ([5]; 10 mg/L) [%]	VmaxF (of Fibrin Clot Lysis) ([5]; 10 mg/L) [%]	Amax (maximum of fibrin clot absorbance at 360 nm) ([5]; 25 mg/L) [%]	VmaxC (of Fibrin Polymerization) ([5]; 25 mg/L) [%]	VmaxF (of Fibrin Clot Lysis) ([5]; 25 mg/L) [%]	Amax (maximum of fibrin clot absorbance at 360 nm) ([5]; 50 mg/L) [%]	VmaxC (of Fibrin Polymerization) ([5]; 50 mg/L) [%]	VmaxF (of Fibrin Clot Lysis) ([5]; 50 mg/L) [%]	effect on fibrin polymerization (VmaxC) in words [5]	further results
Cl.NCC(=O)NCCCCCC(=O)O [Amide 8, 6-(2-Aminoacetamido)hexanoic acid hydrochloride]	0.08	0.44	0.71	0.36	93.0 ± 2.2 % of Control	95.5 ± 4.3 % of Control	97.2 ± 3.2 % of Control	100.0 ± 7.0 % of Control	94.3 ± 1.3 % of Control	92.4 ± 5.2 % of Control	104.83 ± 2.83	101.96 ± 6.62	82.96 ± 12.49	100.18 ± 3.77	100.98 ± 6.60	96.07 ± 14.56	108.64 ± 11.94	105.67 ± 8.34	66.90 ± 23.22	did not influence	hemolysis at 120 min, 5 mg/L ([1]; c 5 mg/L, 120 min): 0.74%; hemolysis at 45 min, 50 mg/L ([1]; c 50 mg/L as printed in the third concentration block of amides 7 and 8, 45 min): 0%; hemolysis at 120 min, 50 mg/L ([1]; c 50 mg/L as printed in the third concentration block of amides 7 and 8, 120 min): 0.47%; hemolysis at 240 min, 50 mg/L ([1]; c 50 mg/L as printed in the third concentration block of amides 7 and 8, 240 min): 0.37%; Hemolysis [%] ([2]; c 50 mg/L, 240 min): 0.3%; prothrombin time, effect versus control in words ([3]; concentration not specified (10, 25, 50 mg/L tested)): slightly but statistically significantly reduced; prothrombin time, effect versus control in words ([3]; lowest concentration (10 mg/L)): fell only slightly; also recorded: most effectively lowered; TT, effect versus control in words ([4]; c = 25, and 50 mg/L): shorter TT than the control sample; aPTT Time [% of Control] ([6]; c 10 mg/L): 95.1 ± 7.5 % of Control; aPTT Time [% of Control] ([6]; c 25 mg/L): 97.7 ± 5.9 % of Control; aPTT Time [% of Control] ([6]; c 50 mg/L): 95.2 ± 7.3 % of Control; melting point: 120 to 123 °C
Cl.NCCCCCC(=O)NCC(=O)O [Amide 1, 2-(6-Aminohexanamido)acetic acid hydrochloride]	0	0.5	0.18	0.35	96.3 ± 2.5 % of Control	95.0 ± 2.9 % of Control	95.7 ± 2.2 % of Control	95.9 ± 6.3 % of Control	96.1 ± 6.8 % of Control	94.3 ± 8.3 % of Control	105.98 ± 4.31	106.12 ± 4.28	99.08 ± 9.93	107.24 ± 8.91	105.66 ± 6.27	87.32 ± 20.27	104.62 ± 9.46	104.20 ± 3.85	95.58 ± 15.97	Mild pro-coagulant effects	hemolysis at 120 min, 500 mg/L ([1]; c 500 mg/L, 120 min): 0.56%; hemolysis at 240 min, 500 mg/L ([1]; c 500 mg/L, 240 min): 0.42%; Hemolysis [%] ([2]; c 500 mg/L, 45 min): 0.27%; Hemolysis [%] ([2]; c 500 mg/L, 120 min): 0.59%; Hemolysis [%] ([2]; c 500 mg/L, 240 min): 0.58%; prothrombin time, effect versus control in words ([3]; at all concentrations (10, 25, 50 mg/L)): significantly decreased; fibrinolytic activity (VmaxF), effect in words ([5]; 50 µg/mL): no statistically significant effect; aPTT Time [% of Control] ([6]; c 10 mg/L): 108.3 ± 11.9 % of Control; aPTT Time [% of Control] ([6]; c 25 mg/L): 105.1 ± 7.7 % of Control; aPTT Time [% of Control] ([6]; c 50 mg/L): 101.9 ± 9.3 % of Control; aPTT, effect versus control in words ([6]; tested at 10, 25, 50 mg/L): not statistically significant
